This is an account of results in US20230406831A1, “COMPOUNDS AND METHODS OF INHIBITING BACTERIAL CHAPERONIN SYSTEMS” (THE TRUSTEES OF INDIANA UNIVERSITY, priority 2020, published 2023).

What is called IC50 is the concentration that inhibits the measured activity by half.

For the assay, the target named is T1, GroEL/ES (Escherichia coli, UniProt P0A6F5).
T1 construct: made in house; host or cells: GroEL in E. coli DH5a; GroES in E. coli BL21 (DE3)
T1 sequence (P0A6F5 2-548): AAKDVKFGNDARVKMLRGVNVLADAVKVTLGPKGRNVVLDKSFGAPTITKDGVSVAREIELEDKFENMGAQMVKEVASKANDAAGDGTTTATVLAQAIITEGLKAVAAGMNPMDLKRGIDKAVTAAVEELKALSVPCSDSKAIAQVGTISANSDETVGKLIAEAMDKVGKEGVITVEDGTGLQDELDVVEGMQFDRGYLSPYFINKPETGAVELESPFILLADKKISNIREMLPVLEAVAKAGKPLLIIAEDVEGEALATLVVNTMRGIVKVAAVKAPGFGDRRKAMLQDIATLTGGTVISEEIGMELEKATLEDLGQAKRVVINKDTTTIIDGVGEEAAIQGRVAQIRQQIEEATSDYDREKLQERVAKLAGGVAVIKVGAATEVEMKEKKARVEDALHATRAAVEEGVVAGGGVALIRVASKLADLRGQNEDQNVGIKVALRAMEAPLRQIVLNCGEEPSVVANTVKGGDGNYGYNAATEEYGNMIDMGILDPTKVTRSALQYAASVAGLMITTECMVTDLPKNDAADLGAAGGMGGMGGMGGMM
Description: GroEL/ES-mediated dMDH refolding assay. It is filed as biochemical, E. coli. As for the experimental part:
Evaluation of compounds ability to inhibit GroEL/ES and HSP60/10-mediated dMDH refolding assays.
Reagent preparation: For these assays, four primary reagent stocks were prepared: 1) GroEL/ES-dMDH or HSP60/10-dMDH binary complex stock; 2) ATP initiation stock; 3) EDTA quench stock; 4) MDH enzymatic assay stock. Denatured MDH (dMDH) was prepared by 2-fold dilution of MDH (5 mg/ml, soluble pig heart MDH from Roche, product #10127248001) with denaturant buffer (7 M guanidine-HCl, 200 mM Tris, pH 7.4, and 50 mM DTT). MDH was completely denatured by incubating at room temperature for 45 min. The binary complex solutions were prepared by slowly adding the dMDH stock to a stirring stock with GroEL (or HSP60) in folding buffer (50 mM Tris-HCl, pH 7.4, 50 mM KCl, 10 mM MglC2, and 1 mM DTT), followed by addition of GroES (or HSP10). The binary complex stocks were prepared immediately prior to dispensing into the assay plates and had final protein concentrations of 83.3 nM GroEL (Mr 800 kDa) or HSP60 (Mr 400 kDa), 100 nM GroES or HSP10 (Mr 70 kDa), and 20 nM dMDH in folding buffer. For the ATP initiation stock, ATP solid was diluted into folding buffer to a final concentration of 2.5 mM. Quench solution contained 600 mM EDTA (pH 8.0). The MDH enzymatic assay stock consisted of 20 mM sodium mesoxalate and 2.4 mM NADH in reaction buffer (50 mM Tris-HCl, pH 7.4, 50 mM KC1, and 1 mM DTT).
Assay Protocol: First, 30 μL aliquots of the GroEL/ES-dMDH or HSP60/10-dMDH binary complex stocks were dispensed into clear, 384-well polystyrene plates. Next, 0.5 μL of the compound stocks (10 mM to 4.6 μM, 3-fold dilutions series in DMSO) were added by pin-transfer (V&P Scientific). The chaperonin-mediated refolding cycles were initiated by addition of 20 IA of ATP stock (reagent concentrations during refolding cycle: 50 nM GroEL or HSP60, 60 nM GroES or HSP10, 12 nM dMDH, 1 mM ATP, and compounds of 100 μM to 46 nM, 3-fold dilution series). The refolding reactions were incubated at 37° C. The incubation time was determined from refolding time-course control experiments until they reached ˜90% completion of refolding cycle — generally ˜20-40 min for GroEL/ES, and ˜40-60 min for HSP60/10). Next, the assay was quenched by addition of 10 μL of the EDTA to final concentration of 100 mM. […] A340 nm measurements were recorded at 0.5 minutes (start point) and at successive time points until the amount of NADH consumed reached ˜90% (end point, generally between 20-35 minutes). The differences between the start and end point A340 values were used to calculate the % inhibition of the GroEL/ES or HSP60/10 machinery by the compounds. IC50 values for the test compounds were obtained by plotting the % inhibition results in GraphPad Prism 6 and analyzing by non-linear regression using the log (inhibitor) vs. response (variable slope) equation. Results presented represent the averages of IC50 values obtained from at least quadriplicate (duplicate of duplicate) replicates. For results, see Tables 1, 2, and 3.
Turning to `Cc1cc(C(C#N)c2ccc(Cl)cc2)c(Cl)cc1NC(=O)c1ccccc1Br` (centres unmarked) [Compound 73, 2-bromo-N-(5-chloro-4-((4-chlorophenyl)(cyano)methyl)-2-methylphenyl)benzamide], the IC50 amounted to 53 µM.

In the case of `Cc1cc(C(C#N)c2ccc(Cl)cc2)c(Cl)cc1NC(=O)c1cccc(Br)c1` (centres unmarked) [Compound 74, 3-bromo-N-(5-chloro-4-((4-chlorophenyl)(cyano)methyl)-2-methylphenyl)benzamide], inhibition was half-maximal at 50 µM (IC50).

Molecule `Cc1cc(C(C#N)c2ccc(Cl)cc2)c(Cl)cc1NC(=O)c1ccc(Br)cc1` (centres unmarked) [Compound 75, 4-bromo-N-(5-chloro-4-((4-chlorophenyl)(cyano)methyl)-2-methylphenyl)benzamide] showed a 50% inhibitory concentration (IC50) of 58 µM. For `Cc1cc(C(C#N)c2ccc(Cl)cc2)c(Cl)cc1NC(=O)c1ccccc1Cl` (centres unmarked) [Compound 76, 2-chloro-N-(5-chloro-4-((4-chlorophenyl)(cyano)methyl)-2-methylphenyl)benzamide], the IC50 was found to be 54 µM.

Regarding `Cc1cc(C(C#N)c2ccc(Cl)cc2)c(Cl)cc1NC(=O)c1cccc(Cl)c1` (centres unmarked) [Compound 77, 3-chloro-N-(5-chloro-4-((4-chlorophenyl)(cyano)methyl)-2-methylphenyl)benzamide], the 50% inhibitory concentration (IC50) was determined as 63 µM. The figure for `Cc1cc(C(C#N)c2ccc(Cl)cc2)c(Cl)cc1NC(=O)c1ccc(Cl)cc1` (centres unmarked) [Compound 78, 4-chloro-N-(5-chloro-4-((4-chlorophenyl)(cyano)methyl)-2-methylphenyl)benzamide] is 63 µM. Turning to `Cc1cc(C(C#N)c2ccc(Cl)cc2)c(Cl)cc1NC(=O)c1ccccc1F` (centres unmarked) [Compound 79, N-(5-chloro-4-((4-chlorophenyl)(cyano)methyl)-2-methylphenyl)-2-fluorobenzamide], the IC50 came out at 89 µM.

For the molecule `Cc1cc(C(C#N)c2ccc(Cl)cc2)c(Cl)cc1NC(=O)c1cccc(F)c1` (centres unmarked) [Compound 80, N-(5-chloro-4-((4-chlorophenyl)(cyano)methyl)-2-methylphenyl)-3-fluorobenzamide], the concentration for half-maximal inhibition (IC50) turned out to be 78 µM. For the molecule `Cc1cc(C(C#N)c2ccc(Cl)cc2)c(Cl)cc1NC(=O)c1ccc(F)cc1` (centres unmarked) [Compound 81, N-(5-chloro-4-((4-chlorophenyl)(cyano)methyl)-2-methylphenyl)-4-fluorobenzamide], the half-maximal inhibitory concentration (IC50) was 77 µM. The figure for `Cc1cc(C(C#N)c2ccc(Cl)cc2)c(Cl)cc1NC(=O)c1ccccc1` (centres unmarked) [Compound 82, N-(5-chloro-4-((4-chlorophenyl)(cyano)methyl)-2-methylphenyl)benzamide] is 74 µM; for `CC(=O)Nc1cc(Cl)c(C(C#N)c2ccc(Cl)cc2)cc1C` (centres unmarked) [Compound 83, N-(5-chloro-4-((4-chlorophenyl)(cyano)methyl)-2-methylphenyl)acetamide] it is greater than 100 µM; for `COc1ccc(Cl)cc1C(=O)Nc1ccc(C(C#N)c2ccccc2)cc1` (centres unmarked) [Compound 84, 5-chloro-N-(4-(cyano(phenyl)methyl)phenyl)-2-methoxybenzamide] it is 94 µM.

As for `N#CC(c1ccccc1)c1ccc(NC(=O)c2cc(Cl)ccc2O)cc1` (centres unmarked) [Compound 85, 5-chloro-N-(4-(cyano(phenyl)methyl)phenyl)-2-hydroxybenzamide], the half-maximal inhibitory concentration (IC50) turned out to be 56 µM.

As for `COc1ccc(Cl)cc1C(=O)Nc1ccc(Oc2ccc(Cl)cc2)c(Cl)c1` [Compound 86, 5-chloro-N-(3-chloro-4-(4-chlorophenoxy)phenyl)-2-methoxybenzamide], the IC50 was greater than 100 µM. The result for `O=C(Nc1ccc(Oc2ccc(Cl)cc2)c(Cl)c1)c1cc(Cl)ccc1O` [Compound 87, 5-chloro-N-(3-chloro-4-(4-chlorophenoxy)phenyl)-2-hydroxybenzamide] reads 30 µM; that for `COc1ccc(Cl)cc1C(=O)Nc1ccc(Oc2ccc(Cl)cc2)cc1` [Compound 88, 5-chloro-N-(4-(4-chlorophenoxy)phenyl)-2-methoxybenzamide], greater than 100 µM. The molecule `O=C(Nc1ccc(Oc2ccc(Cl)cc2)cc1)c1cc(Cl)ccc1O` [Compound 89, 5-chloro-N-(4-(4-chlorophenoxy)phenyl)-2-hydroxybenzamide] had an IC50 of 46 µM.
